System: T-cell depleted (CD3 or CD3/CD19 depleted) peripheral blood NK cell populations
Experiment: CD62L expression on T-cell depleted peripheral blood NK cell cultures (FACS)
Format: cell-based, human
Settings: 2.5 and 5.0 mM nicotinamide, after 7, 14 and 21 days in culture
Protocol: For depletion procedure, total nuclear cells from umbilical cord blood (CB), bone marrow (BM) or peripheral blood (PB) cells were layered on a Ficoll-Hypaque gradient (1.077 g/mL; Sigma), and centrifuged at 800×g for 30 minutes for separation of the mononuclear cells. The cells in the interface layer were collected and washed three times in phosphate-buffered saline (PBS) (Biological Industries, Israel) containing 0.5% HSA. Optionally, cells are not separated on the Ficoll-Hypaque gradient but washed three times in phosphate-buffered saline (PBS) (Biological Industries) containing 0.5% HSA (“total mononuclear fraction”). […] After negative depletion the cells were counted and characterized by FACS analysis.
3. […] To estimate number of cells in culture, cell samples were counted following staining with trypan blue. […]
The cells were washed with a PBS solution containing 1% BSA, and stained (at 4° C. for 30 min) with fluorescein isothiocyanate (FITC)- or phycoerythrin (PE)-conjugated antibodies or allophycocyanin (APC). The cells were then washed in the above buffer and analyzed using a FACScalibur® flow cytometer (Becton Dickinson, San Jose, Calif., USA). […] Emission of 10^4 cells was measured using logarithmic amplification, and analyzed using the CellQuest software (Becton Dickinson). […]

NC(=O)c1cccnc1 [nicotinamide]
CD62L-positive cells among the NK cells: increased percentage

— patent US20130011376A1, “Methods for Enhancing Natural Killer Cell Proliferation and Activity” (GAMIDA CELL LTD., priority 2009, published 2013)
